Assay results from patent US20240287138A1, “CYCLIC PEPTIDES FOR INHIBITING TNF RECEPTOR 1 ACTIVITY” (Merck Sharp & Dohme LLC, priority 2023, published 2024).
pIC50, pKd: −log10 of the molar value. Numbered stars: 1 amine (or outer) side, 2 acyl side, 3 side chain; on linkers, the order of the positions; unused ones are H or OH. Square brackets hold non-standard residues; d marks the D form. Peptide text beside a SMILES is read from it. Trp(βS-Me,7-OMe) = COc1cccc2c([C@H](C)[C@H](N)C(=O)O)c[nH]c12; Trp(7-Cl) = N[C@@H](Cc1c[nH]c2c(Cl)cccc12)C(=O)O; Ala(pyrimidin-5-yl) = N[C@@H](Cc1cncnc1)C(=O)O; Phe(4-CONH2) = NC(=O)c1ccc(C[C@H](N)C(=O)O)cc1; Phe(4-COOH) = N[C@@H](Cc1ccc(C(=O)O)cc1)C(=O)O; X18 = O=C([C@@H]1C=C[C@H](N[*:1])C1)[*:2]; Pip(5R-OH) = O=C(O)[C@@H]1CC[C@@H](O)CN1; X1 = O=C([C@@H]1CC[C@H](N[*:1])C1)[*:2]; Pip(4-aza) = O=C(O)[C@@H]1CNCCN1; hArg = N=C(N)NCCCC[C@H](N)C(=O)O; hPhe = N[C@@H](CCc1ccccc1)C(=O)O; 4Pal = N[C@@H](Cc1ccncc1)C(=O)O; NMeE = CN[C@@H](CCC(=O)O)C(=O)O; hLys = NCCCCC[C@H](N)C(=O)O; αMeS = C[C@](N)(CO)C(=O)O; NMeA = CN[C@@H](C)C(=O)O; Nle = CCCC[C@H](N)C(=O)O; Sar = CNCC(=O)O

Assays:
human TNFR2 ECD protein = target: T1, human TNFR2 ECD protein (Homo sapiens, UniProt P20333); assay: SPR off-target binding (selectivity) to human TNFR2 ECD
T1 construct: HRV 3C protease cleavage site (C); 6His (C, cleaved yes); made in house; host or cells: Sf21 insect cells (baculovirus), secreted
T1 sequence (P20333 23-257): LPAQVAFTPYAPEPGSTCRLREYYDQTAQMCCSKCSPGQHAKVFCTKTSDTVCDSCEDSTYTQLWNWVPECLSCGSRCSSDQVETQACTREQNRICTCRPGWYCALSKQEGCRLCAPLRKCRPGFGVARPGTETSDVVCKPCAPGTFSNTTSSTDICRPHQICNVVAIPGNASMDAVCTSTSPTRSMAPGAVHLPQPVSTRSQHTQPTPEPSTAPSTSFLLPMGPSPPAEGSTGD
Description: (§1) B. Procedure for Binding Affinity and Selectivity measured by SPR
(§2) Affinity and selectivity for hTNFR1 and TNFR2 was determined using SPR. Human TNFR1 or TNFR2 genes (extracellular domain only) were synthesized with a C-terminal Avi-tag, HRV 3C protease cleavage site followed by a 6His-tag for affinity purification. The final gene product was cloned into pBAC™-1 vector (Millipore Sigma) for expression testing in insect cells. Constructs were transfected into Sf21 cells for baculovirus generation followed by protein expression analysis in Sf21 and Tni cell lines. Large scale expression in Sf21 cells was performed using baculovirus infected insect cells (BIICs) infected at a MOI=2.0 grown for 72 h. Target proteins secreted into the media were harvested via centrifugation and concentrated using diafiltration. TNFR was purified by immobilized metal ion affinity chromatography (IMAC) using a Ni-Sepharose HisTrap™ column (Cytiva™). Isolated TNFR had His tag removed using HRV 3C protease followed by additional purification using Ni-NTA chromatography. Biotinylation was performed on Ni-NTA flow-through fractions concentrated to 45 μM and treated with BirA ligase (1:100, μg/μg ratio) in 50 mM Tris pH 7.5, 150 mM NaCl, 50 μM biotin, 10 mM magnesium acetate, 10 mM ATP at 4° C. for 20 h. Final purification of biotin-TNFR and buffer exchange into 20 mM HEPES pH 7.5, 150 mM NaCl was performed using a HiLoad® Superdex® 200 26/60 column (Cytiva™). Highly purified protein was aliquoted and stored at −80° C.
(§3) The SPR assay uses a Cytiva™ 8K or 8K+ biosensor instrument to measure the kinetics of peptide analytes binding to captured human TNFR1 extracellular domain (ECD) protein; peptide analytes are also evaluated for any off-target binding to human TNFR2 ECD protein in parallel. Recombinant human TNFR1 ECD and human TNFR2 ECD proteins, biotinylated via engineered C-terminal avi-tags, are immobilized to a regenerable streptavidin biosensor chip surface (Cytiva™ Biotin CAPture kit, Series S; cat. #28920234). Peptide analytes binding to immobilized human TNFR1 ECD protein and their subsequent dissociation are conducted in a buffer of 10 mM HEPES pH 7.4, 150 mM NaCl, 3 mM EDTA, 0.05% P20,2% DMSO under laminar flow conditions and measured in response units (RU), which are directly proportional to the accumulated mass on the surface of the biosensor chip; the biosensor chip surface is regenerated via Cytiva™ proprietary methods between the evaluation of each peptide analyte. […] The SPR assay determines the association and dissociation rate constants, kon and koff, for each peptide analyte and, from these values, calculates the binding affinity, […] reported in Table 2.

[1] = target: T2, human TNFR1 extracellular domain (ECD) protein (Homo sapiens, UniProt P19438); assay: SPR binding affinity to captured human TNFR1 ECD
T2 construct: HRV 3C protease cleavage site (C); 6His (C, cleaved yes); made in house; host or cells: Sf21 insect cells (baculovirus), secreted
T2 sequence (P19438 30-211): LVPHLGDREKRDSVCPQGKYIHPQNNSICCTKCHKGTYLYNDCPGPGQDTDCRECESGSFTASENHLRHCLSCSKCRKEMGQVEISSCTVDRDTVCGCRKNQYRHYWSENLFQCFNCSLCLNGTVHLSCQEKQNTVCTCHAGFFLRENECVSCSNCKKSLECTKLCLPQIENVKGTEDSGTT
Description: as §1, §2, §3

[2] = target: T3, TNFα-induced NF-κB signal transduction pathway (TNFR1 signaling) in THP-1 cells (Homo sapiens, UniProt P19438); assay: THP-1 Lucia NF-κB reporter cell assay, inhibition of TNFα-induced NF-κB signaling; format: cell-based; settings: THP-1 NF-κB Lucia reporter cells, 10 ng/mL TNFα, 16-18 h, secreted luciferase; read-out: THP-1 IC50
T3 sequence (P19438 30-455): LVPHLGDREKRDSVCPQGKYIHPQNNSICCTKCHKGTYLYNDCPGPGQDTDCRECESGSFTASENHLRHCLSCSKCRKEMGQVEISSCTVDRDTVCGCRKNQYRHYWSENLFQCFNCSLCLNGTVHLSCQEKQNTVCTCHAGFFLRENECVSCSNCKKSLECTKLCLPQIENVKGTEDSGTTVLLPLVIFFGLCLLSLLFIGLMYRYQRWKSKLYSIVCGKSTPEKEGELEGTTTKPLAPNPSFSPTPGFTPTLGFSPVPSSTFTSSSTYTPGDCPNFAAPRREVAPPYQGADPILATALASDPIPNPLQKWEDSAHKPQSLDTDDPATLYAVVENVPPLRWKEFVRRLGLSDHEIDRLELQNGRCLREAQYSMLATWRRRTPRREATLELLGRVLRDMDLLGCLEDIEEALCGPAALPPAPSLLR
Procedure, shortened: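 Macrocyclic peptides were preincubated 1 h at 37 °C with THP-1 NF-κB-Lucia reporter cells (20,000 cells/well) in antibiotic-free RPMI 1640/10% FBS, then stimulated with 10 ng/mL human TNFα overnight (16-18 h). Secreted luciferase in supernatant was read by luminescence; IC50 from 4-parameter logistic fits.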

## CCCC[C@@H]1NC(=O)[C@@H]2CC[C@@H](C2)NC(=O)[C@H]([C@@H](C)c2c[nH]c3c(OC)cccc23)NC(=O)CN(C)C(=O)[C@H](Cc2ccc(O)cc2)NC(=O)[C@H](Cc2ccc(C(N)=O)cc2)NC(=O)[C@](C)(CO)NC(=O)[C@H](Cc2c[nH]c3c(Cl)cccc23)NC(=O)[C@H](Cc2cncnc2)NC(=O)[C@H](CC(N)=O)NC(=O)[C@H](CCC(=O)O)N(C)C(=O)[C@H](Cc2c[nH]c3ccccc23)NC(=O)[C@@H]2CC[C@@H](O)CN2C(=O)[C@H](Cc2ccncc2)NC1=O [SEQ ID NO. 102] (cyclo([4Pal][Pip(5R-OH)]W[NMeE]N[Ala(pyrimidin-5-yl)][Trp(7-Cl)][αMeS][Phe(4-CONH2)]Y[Sar][Trp(βS-Me,7-OMe)][X1][Nle]))
Human TNFR2 ECD protein
  pKd: < 6.00
[1]
  pKd: 9.70
[2]
  pIC50: 9.30

## COc1cccc2c([C@H](C)[C@@H]3NC(=O)CN(C)C(=O)[C@H](Cc4ccc(O)cc4)NC(=O)[C@H](Cc4ccc(C(=O)O)cc4)NC(=O)[C@](C)(CO)NC(=O)[C@H](Cc4c[nH]c5c(Cl)cccc45)NC(=O)[C@H](Cc4ccncc4)NC(=O)[C@H](CC(N)=O)NC(=O)[C@H](CCC(=O)O)N(C)C(=O)[C@H](Cc4c[nH]c5ccccc45)NC(=O)[C@@H]4CNCCN4C(=O)[C@H](Cc4ccncc4)NC(=O)[C@H](CCCCNC(=N)N)NC(=O)[C@@H]4CC[C@@H](C4)NC3=O)c[nH]c12 [SEQ ID NO. 35] (cyclo([4Pal][Trp(7-Cl)][αMeS][Phe(4-COOH)]Y[Sar][Trp(βS-Me,7-OMe)][X1][hArg][4Pal][Pip(4-aza)]W[NMeE]N))
Human TNFR2 ECD protein
  pKd: < 6.00
[1]
  pKd: 9.96
[2]
  pIC50: 9.00

## C[C@H]1C(=O)N[C@@H](CC(N)=O)C(=O)N[C@@H](Cc2ccncc2)C(=O)N[C@@H](Cc2c[nH]c3ccccc23)C(=O)N[C@@](C)(CO)C(=O)N[C@@H](Cc2ccc(C(=O)O)cc2)C(=O)N[C@@H](Cc2ccc(O)cc2)C(=O)N(C)CC(=O)N[C@@H](Cc2c[nH]c3ccccc23)C(=O)N[C@H]2C=C[C@H](C2)C(=O)N[C@@H](CCc2ccccc2)C(=O)N[C@@H](Cc2ccncc2)C(=O)N[C@@H](CO)C(=O)N[C@@H](Cc2c[nH]c3ccccc23)C(=O)N1C [SEQ ID NO. 73] (cyclo([4Pal]SW[NMeA]N[4Pal]W[αMeS][Phe(4-COOH)]Y[Sar]W[X18][hPhe]))
Human TNFR2 ECD protein
  pKd: < 6.00
[1]
  pKd: 9.05
[2]
  pIC50: 8.24

## COc1cccc2c([C@H](C)[C@@H]3NC(=O)CN(C)C(=O)[C@H](Cc4ccc(O)cc4)NC(=O)[C@H](Cc4ccc(C(=O)O)cc4)NC(=O)[C@](C)(CO)NC(=O)[C@H](Cc4c[nH]c5c(Cl)cccc45)NC(=O)[C@H](Cc4ccncc4)NC(=O)[C@H](CC(N)=O)NC(=O)[C@H](CCC(=O)O)N(C)C(=O)[C@H](Cc4c[nH]c5ccccc45)NC(=O)[C@@H]4CC[C@@H](O)CN4C(=O)[C@H](Cc4ccncc4)NC(=O)[C@H](CCCCCN)NC(=O)[C@@H]4CC[C@@H](C4)NC3=O)c[nH]c12 [SEQ ID NO. 131] (cyclo([4Pal][Trp(7-Cl)][αMeS][Phe(4-COOH)]Y[Sar][Trp(βS-Me,7-OMe)][X1][hLys][4Pal][Pip(5R-OH)]W[NMeE]N))
Human TNFR2 ECD protein
  pKd: < 6.00
[1]
  pKd: 10.22
[2]
  pIC50: 9.15
